This note sets out measurements from PMC10511884 (Frontiers in Chemistry, 2023).

Molecules are shown by their SMILES.

For experiment [1], the target named is T1, COX-1 (Ovis aries, UniProt P05979).
T1 construct: purchased Sigma-Aldrich C0733-5000UN
T1 sequence (P05979 25-600): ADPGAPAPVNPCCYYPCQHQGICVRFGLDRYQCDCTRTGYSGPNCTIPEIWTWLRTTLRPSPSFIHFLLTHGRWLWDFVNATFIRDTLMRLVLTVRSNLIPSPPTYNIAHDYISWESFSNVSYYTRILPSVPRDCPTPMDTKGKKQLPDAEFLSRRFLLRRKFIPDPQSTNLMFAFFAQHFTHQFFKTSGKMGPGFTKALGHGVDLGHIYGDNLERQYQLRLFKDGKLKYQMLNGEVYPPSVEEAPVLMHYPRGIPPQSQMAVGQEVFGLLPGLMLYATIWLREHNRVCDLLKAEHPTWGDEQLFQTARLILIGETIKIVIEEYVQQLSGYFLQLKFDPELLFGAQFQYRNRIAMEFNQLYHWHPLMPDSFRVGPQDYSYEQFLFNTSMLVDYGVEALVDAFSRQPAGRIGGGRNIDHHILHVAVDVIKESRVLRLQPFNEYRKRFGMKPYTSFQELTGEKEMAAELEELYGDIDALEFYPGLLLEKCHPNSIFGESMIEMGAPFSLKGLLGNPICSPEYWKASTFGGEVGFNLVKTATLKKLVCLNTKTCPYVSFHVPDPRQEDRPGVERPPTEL
The experiment can be described thus: In vitro COX-1 enzyme inhibitory assay. Particulars: mean ± SEM; n = 3. In kind it is biochemical, sheep. The procedure: (§1) In a nutshell, the test specimens were made in progressively higher concentrations. Furthermore, enzyme solutions for COX-1 from a sheep source (CAT: C0733-5000UN, Sigma-Aldrich) and COX-2 from a human recombinant source (CAT: C0858) were developed. COX-1 has a concentration of 0.7–0.8 g/L, whereas COX-2 has a concentration of 300 units/mL. […] The COX-2 enzyme solution was primed at 300 U/mL levels. 10 μL of the enzyme solution was kept on ice (4°C) for 5–6 min before 50 µL of the required co-factor solution was added. This solution contains 1 mM hematin in a 0.1 M Tris-buffer with pH 8.0, 0.24 mM tetramethyl-p-phenylenediamine dihydrochloride (TMPD), and 0.9 mM glutathione. Then, for the next 5–10 min, the enzyme solution (60 µL) and experiment samples (20 µL) of different strengths has been kept at the normal temperature. Similar to that, 20 µL of 30 mM arachidonic acid was utilized to start the procedure. The mixture’s temperature was held at 37°C for an additional 15 min. A UV-visible spectrophotometer was used to determine the absorbance at 570 nm after which the process was halted by adding HCl. Using the absorbance value per unit time, the percentage of COX-2 inhibition was computed. Celecoxib served as the standard control in the present study.

Experiment [2] concerns the target T2, COX-2 (Homo sapiens, UniProt P35354).
T2 construct: purchased Sigma-Aldrich C0858
T2 sequence (P35354 18-604): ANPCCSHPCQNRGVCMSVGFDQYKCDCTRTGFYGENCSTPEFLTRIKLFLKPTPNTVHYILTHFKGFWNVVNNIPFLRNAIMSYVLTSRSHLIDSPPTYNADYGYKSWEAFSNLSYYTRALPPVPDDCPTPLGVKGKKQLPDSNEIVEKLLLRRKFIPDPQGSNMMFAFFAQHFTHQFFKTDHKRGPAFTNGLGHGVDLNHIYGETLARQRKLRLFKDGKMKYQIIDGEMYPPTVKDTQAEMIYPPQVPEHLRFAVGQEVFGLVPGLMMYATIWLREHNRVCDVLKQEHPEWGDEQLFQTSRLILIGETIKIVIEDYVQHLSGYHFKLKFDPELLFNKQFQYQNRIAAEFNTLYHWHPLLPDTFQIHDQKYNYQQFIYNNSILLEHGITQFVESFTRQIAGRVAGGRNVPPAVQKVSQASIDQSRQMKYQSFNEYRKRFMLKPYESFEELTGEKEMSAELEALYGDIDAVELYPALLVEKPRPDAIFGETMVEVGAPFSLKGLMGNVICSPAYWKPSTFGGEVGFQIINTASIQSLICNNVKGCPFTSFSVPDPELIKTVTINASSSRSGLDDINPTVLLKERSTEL
The experiment can be described thus: In vitro COX-2 enzyme inhibitory assay. It counts as biochemical. Particulars: mean ± SEM; n = 3. The procedure:
as §1

By IC50 is commonly meant the concentration that gives 50% inhibition. Higher therefore signals lower potency. As to `COc1ccc(C2NC(=O)NC(C(F)(F)F)=C2c2cc(-c3ccc(-c4ccccc4)cc3)on2)cc1` (centres unmarked) [Compound C4, 5-(5-([1,1′-biphenyl]-4-yl)isoxazol-3-yl)-4-(4-methoxyphenyl)-6-(trifluoromethyl)-3,4-dihydropyrimidin-2(1H)-one], the IC50 in experiment [1] amounted to 66.8 ± 1.84 µM; in experiment [2] it was 8.27 ± 0.2 µM.
On to `O=C1NC(C(F)(F)F)=C(c2cc(-c3ccco3)on2)C(c2ccc(C(F)(F)F)cc2)N1` (centres unmarked) [Compound C7, 5-(5-(furan-2-yl)isoxazol-3-yl)-6-(trifluoromethyl)-4-(4-(trifluoromethyl)phenyl)-3,4-dihydropyrimidin-2(1H)-one], for which the results for the IC50 in experiment [1] and in experiment [2] were 83.8 ± 0.96 µM and 0.74 ± 0.1 µM, respectively.
For `O=C1NC(C(F)(F)F)=C(c2cc(-c3ccncc3)on2)C(c2ccccc2)N1` (centres unmarked) [Compound C9, 4-phenyl-5-(5-(pyridin-4-yl)isoxazol-3-yl)-6-(trifluoromethyl)-3,4-dihydropyrimidin-2(1H)-one], in that order: 101 ± 1.17 µM and 1.7 ± 0.1 µM.
For `O=C1NC(C(F)(F)F)=C(c2cc(-c3ccncc3)on2)C(c2ccncc2)N1` (centres unmarked) [Compound C10, 4-(Pyridin-4-yl)-5-(5-(pyridin-4-yl)isoxazol-3-yl)-6-(trifluoromethyl)-3,4 dihydropyrimidin-2(1H)-one], in that order: 61.9 ± 1.11 µM and 20 ± 0.4 µM.
For `COc1ccc(C2NC(=O)NC(C(F)(F)F)=C2c2cc(-c3ccccc3)on2)cc1O` (centres unmarked) [Compound C3, 4-(3-hydroxy-4-methoxyphenyl)-5-(5-phenylisoxazol-3-yl)-6-(trifluoromethyl)-3,4-dihydropyrimidin-2(1H)-one], in that order: 22.6 ± 0.9 µM and 0.93 ± 0.01 µM.
As for `Cc1cc(C2=C(C(F)(F)F)NC(=O)NC2c2ccccc2)no1` (centres unmarked) [Compound C1, 5-(5-methylisoxazol-3-yl)-4-phenyl-6-(trifluoromethyl)-3,4-dihydropyrimidin-2(1H)-one], the concentration for half-maximal inhibition (IC50) in experiment [1] was 239 ± 2.3 µM; in experiment [2], 2.52 ± 0.02 µM.
With `Cc1ccc(C2NC(=O)NC(C(F)(F)F)=C2c2cc(-c3ccco3)on2)cc1` (centres unmarked) [Compound C8, 5-(5-(furan-2-yl)isoxazol-3-yl)-4-p-tolyl-6-(trifluoromethyl)-3,4-dihydropyrimidin-2(1H)-one], the IC50 in experiment [1] came out at 91.19 ± 0.51 µM; in experiment [2] it was 0.79 ± 0.05 µM.
For `O=C1NC(C(F)(F)F)=C(c2cc(-c3ccco3)on2)C(c2ccco2)N1` (centres unmarked) [Compound C5, 4-(furan-2-yl)-5-(5-(furan-2-yl)isoxazol-3-yl)-6-(trifluoromethyl)-3,4-dihydropyrimidin-2(1H)-one], in that order: 35.5 ± 1.49 µM and 0.85 ± 0.04 µM.
For `COc1ccc(C2NC(=O)NC(C(F)(F)F)=C2c2cc(C)on2)cc1` (centres unmarked) [Compound C2, 4-(4-methoxyphenyl)-5-(5-methylisoxazol-3-yl)-6-(trifluoromethyl)-3,4-dihydro-pyrimidin-2(1H)-one], in that order: 172 ± 1.9 µM and 2.43 ± 0.05 µM.
The like results for `COc1ccc(C2NC(=O)NC(C(F)(F)F)=C2c2cc(-c3ccco3)on2)cc1` (centres unmarked) [Compound C6, 5-(5-(furan-2-yl)isoxazol-3-yl)-4-(4-methoxyphenyl)-6-(trifluoromethyl)-3,4-dihydro-pyrimidin-2(1H)-one] were, in that order, 34 ± 1.31 µM and 0.55 ± 0.03 µM.
